Assay results taken from patent publication US7199114B2, “Triterpene quaternary salts as biologically active surfactants” (The Regents of the University of Minnesota, priority 2002, dated 2007).
Values after ≈ are worked out from the molar mass of the structure shown.

Key:
[1] = tested on: Staphylococcus aureus Methicillin-resistant; assay: Anti-bacterial activity, broth culture MIC; assay type: cell-based; details: Staphylococcus aureus Methicillin-resistant, broth culture, triplicate; for MIC: read-out: Approximate Minimum Inhibitory Concentration, MIC
Procedure: (§1) Several uncharged or negatively charged triterpenes, and several positively charged triterpenes of the invention were tested for anti-bacterial activity against antibiotic-susceptible and antibiotic resistant strains of four types of bacteria of concern in clinics and hospitals. The triterpenes weres tested in broth culture in triplicate for ability to inhibit bacterial growth. The compounds tested are those listed below.
(§2) The lowest concentration which inhibits bacterial growth is referred to as the minimum inhibitory concentration (MIC), the standard measurement of anti-microbial activity.

[2] = tested on: Enterococcus faecium Vancomycin-sensitive (second listed); assay: Anti-bacterial activity, broth culture MIC; assay type: cell-based; details: Enterococcus faecium Vancomycin-sensitive (r13/r14), broth culture, triplicate; for MIC: read-out: Approximate Minimum Inhibitory Concentration, MIC
Procedure: as §1, §2

[3] = tested on: Staphylococcus aureus Methicillin-sensitive; assay: Anti-bacterial activity, broth culture MIC; assay type: cell-based; details: Staphylococcus aureus Methicillin-sensitive, broth culture, triplicate; for MIC: read-out: Approximate Minimum Inhibitory Concentration, MIC
Procedure: as §1, §2

[4] = tested on: Enterococcus faecium Vancomycin-sensitive (first listed); assay: Anti-bacterial activity, broth culture MIC; assay type: cell-based; details: Enterococcus faecium Vancomycin-sensitive (r11/r12), broth culture, triplicate; for MIC: read-out: Approximate Minimum Inhibitory Concentration, MIC
Procedure: as §1, §2

dollar spot fungus = assay: Turf plot trial at Clemson University (Example 85), area affected by dollar spot; assay type: in vivo, Agrostis stolonifera; details: 50 grams active ingredient per 1000 square feet
Procedure: (§3) Plots of creeping bentgrass, cv. “Pennlinks,” were treated with water based sprays of the test compounds. Sprays were delivered by CO2-charged sprayer to deliver the equivalent of 2 gallons of spray per 1000 sq. ft of plot area. Plots were 15 sq. ft. each, and treatments were mixed to apply material to 75 sq. ft (5 replicates), although only 4 replicates were treated. […] Daconil Ultrex® was applied at 3.2 oz./1000 sq. ft. for 14 days. The experiment used a randomized complete block design, with 4 replicates per treatment. Disease pressure was high. Pennlinks […] is moderately to highly susceptible to both dollar spot and brown patch. For brown patch, caused by Rhozoctonia sofani. a visual estimate of the percent of the plot area affected was recorded. Turf quality was estimated on a 1 to 9 scale, with 1 being worst and 9 being perfect. A rating of 6 is considered acceptable.
(§4) Plots of creeping bentgrass, cv. Pennlinks, were treated with water-based sprays as in Example 84 at Clemson University. Treatment application dates were May 7. May 14, May 28, and June 11. Plots were rated visually, estimating the percent of the area affected by dollar spot fungus […]. Turf quality was rated on a 1 to 9 scale, with 9 being perfect turf, as in Example 84. Disease pressure was moderately high to high when the trial was initiated, with existing dollar spot present.

[5] = Turf plot trial at Clemson University (Example 85), turf quality; assay type: in vivo, creeping bentgrass, cv. Pennlinks; details: 1 to 9 scale, 50 grams active ingredient per 1000 square feet
Procedure: as §3, §4

[6] = tested on: dollar spot fungus (Agrostis stolonifera); assay: Turf plot trial at Clemson University (Example 85), area affected by dollar spot; assay type: in vivo; details: for % of area infected: 50 grams active ingredient per 1000 square feet
Procedure: as §3, §4

C=C(C)[C@@H]1CC[C@]2(CO)CC[C@]3(C)C(CCC4[C@@]5(C)CC[C@H](OC(=O)C[N+]67CCN(CC6)CC7)C(C)(C)C5CC[C@]43C)C12.[Cl-] (stereo partly shown) [Compound 6]
MIC [1]: 2 µg/mL | MIC [2]: 10 µg/mL | MIC [3]: 2 µg/mL | MIC [4]: 5 µg/mL

C=C(C)[C@@H]1CC[C@]2(COC(=O)C(C)[N+]34CCN(CC3)CC4)CC[C@]3(C)C(CCC4[C@@]5(C)CC[C@H](OC(=O)C(C)[N+]67CCN(CC6)CC7)C(C)(C)C5CC[C@]43C)C12.Cl.Cl (stereo partly shown) [Compound 22, Lup-20(29)-ene-3,28-bis[N-(1,4-diazabicyclo [2.2.2]octyl)-2-propionate]-dichloride]
% of area infected (dollar spot fungus; Table 5 c2, Jun. 3, 2002): 24.5 a % | % of area infected (dollar spot fungus; Table 5 c4, Jun. 3, 2002): 17.3 ab % | % of area infected (dollar spot fungus; Table 6, May 8, 2002): 34.3 a % | % of area infected (dollar spot fungus; Table 6, May 13, 2002): 28.5 a % | % of area infected (dollar spot fungus; Table 6, May 20, 2002): 31.5 bc % | % of area infected (dollar spot fungus; Table 6, May 27, 2002): 32.0 ab % | Turf quality ([5]; Table 5, Jun. 3, 2002): 4.80 abc | Turf quality ([5]; Table 5, Jun. 17, 2002): 5.07 ab | Turf quality ([5]; Table 5, May 27, 2002): 3.05 b | Turf quality ([5]; Table 6, May 8, 2002): 3.00 a | Turf quality ([5]; Table 6, May 13, 2002): 3.13 a | Turf quality ([5]; Table 6, May 20, 2002): 2.95 ab

C=C(C)[C@@H]1CC[C@]2(COC(=O)C[N+](C)(C)CCCCCCCC)CC[C@]3(C)C(CCC4[C@@]5(C)CC[C@H](OC(=O)C[N+](C)(C)CCCCCCCC)C(C)(C)C5CC[C@]43C)C12.[Cl-].[Cl-] (stereo partly shown) [Compound 53, Lup-20(29)-ene-3,28-bis(octyldimethylammoniumacetate) dichloride]
% of area infected (dollar spot fungus; Table 5 c2, Jun. 3, 2002): 22.5 a % | % of area infected (dollar spot fungus; Table 5 c4, Jun. 3, 2002): 19.5 ab % | % of area infected (dollar spot fungus; Table 6, May 8, 2002): 33.5 a % | % of area infected (dollar spot fungus; Table 6, May 13, 2002): 28.5 a % | % of area infected (dollar spot fungus; Table 6, May 20, 2002): 27.3 bc % | % of area infected (dollar spot fungus; Table 6, May 27, 2002): 26.8 bcd % | Turf quality ([5]; Table 5, Jun. 3, 2002): 5.18 ab | Turf quality ([5]; Table 5, Jun. 17, 2002): 5.38 ab | Turf quality ([5]; Table 5, May 27, 2002): 3.60 ab | Turf quality ([5]; Table 6, May 8, 2002): 3.00 a | Turf quality ([5]; Table 6, May 13, 2002): 3.05 a | Turf quality ([5]; Table 6, May 20, 2002): 3.25 ab

C=C(C)[C@@H]1CC[C@]2(COC(=O)C[N+](C)(C)CCCCCCCCCCCCCC)CC[C@]3(C)C(CCC4[C@@]5(C)CC[C@H](OC(=O)C[N+](C)(C)CCCCCCCCCCCCCC)C(C)(C)C5CC[C@]43C)C12.[Cl-].[Cl-] (stereo partly shown) [Compound 55, Lup-20(29)-ene-3,28-bis(tetradecyldimethylamoniumacetate) dichloride]
% of area infected (dollar spot fungus; Table 5 c2, Jun. 3, 2002): 28.8 a % | % of area infected (dollar spot fungus; Table 5 c4, Jun. 3, 2002): 24.3 a % | % of area infected (dollar spot fungus; Table 6, May 8, 2002): 33.5 a % | % of area infected (dollar spot fungus; Table 6, May 13, 2002): 30.0 a % | % of area infected (dollar spot fungus; Table 6, May 20, 2002): 32.8 b % | % of area infected (dollar spot fungus; Table 6, May 27, 2002): 29.3 a-d % | Turf quality ([5]; Table 5, Jun. 3, 2002): 5.10 ab | Turf quality ([5]; Table 5, Jun. 17, 2002): 5.2 ab | Turf quality ([5]; Table 5, May 27, 2002): 3.38 ab | Turf quality ([5]; Table 6, May 8, 2002): 3.05 a | Turf quality ([5]; Table 6, May 13, 2002): 3.00 a | Turf quality ([5]; Table 6, May 20, 2002): 2.97 ab

C=C(C)[C@@H]1CC[C@]2(CO)CC[C@]3(C)C(CCC4[C@@]5(C)CC[C@H](OC(=O)C[N+](C)(CCCCCCCCCC)CCCCCCCCCC)C(C)(C)C5CC[C@]43C)C12.[Cl-] (stereo partly shown) [Compound 67, Betulin-3-(didecylmethylammoniumacetoxy) chloride]
% of area infected ([6]; Table 5 c2, Jun. 3, 2002): 13.0 b % | % of area infected ([6]; Table 5 c4, Jun. 3, 2002): 9.0 b % | % of area infected ([6]; Table 6, May 8, 2002): 28.3 a % | % of area infected ([6]; Table 6, May 13, 2002): 26.0 a % | % of area infected ([6]; Table 6, May 20, 2002): 24.3 c % | % of area infected ([6]; Table 6, May 27, 2002): 21.0 d % | extent of dollar spot infection ([6]; by the end of the treatment trial, compared to the no treatment control (text summary of Tables 5 and 6)): best results | Turf quality ([5]; Table 5, Jun. 3, 2002): 6.00 a | Turf quality ([5]; Table 5, Jun. 17, 2002): 5.80 a | Turf quality ([5]; Table 5, May 27, 2002): 4.85 a | Turf quality ([5]; Table 6, May 8, 2002): 3.20 a | Turf quality ([5]; Table 6, May 13, 2002): 3.17 a | Turf quality ([5]; Table 6, May 20, 2002): 3.55 a

C=C(C)[C@@H]1CC[C@]2(C)CC[C@]3(C)[C@H](CC[C@@H]4[C@@]5(C)C=C(O)C(=O)C(C)(C)[C@@H]5CC[C@]43C)[C@@H]12 [Compound 85, lupeneno-1-ene-2-ol, reference compound]
MIC [1]: 100 µg/mL (≈ 228 µM) | MIC [2]: 50 µg/mL (≈ 114 µM) | MIC [3]: 50 µg/mL (≈ 114 µM) | MIC [4]: 20 µg/mL (≈ 45.6 µM)

C=C(C)C1CCC2(C)CCC3(C)C(CCC4C5(C)CCC(OC(=O)C=CC(=O)O)C(C)(C)C5CCC43C)C12 (stereo not shown) [Compound 86, lupeol-3-maleate, reference compound]
Approximate Minimum Inhibitory Concentration, MIC [2]: 50 µg/mL | Approximate Minimum Inhibitory Concentration, MIC [4]: 10 µg/mL | Approximate Minimum Inhibitory Concentration, MIC ([4]; listed as lupeol-3-maleate): ≤ 10 µg/mL

C=C(C)C1CCC2(COC(=O)CCC(=O)O)CC[C@@]3(C)C(CCC4[C@@]5(C)CCC(OC(=O)CCC(=O)O)C(C)(C)C5CC[C@]43C)C12 (stereo partly shown) [Compound 91, betulin-3,28-disuccinate, reference compound]
Approximate Minimum Inhibitory Concentration, MIC [3]: 200 µg/mL

C=C(C)C1CCC2(COC(=O)CCC(=O)O)CC[C@@]3(C)C(CCC4[C@@]5(C)CCC(O)C(C)(C)C5CC[C@]43C)C12 (stereo partly shown) [Compound 92, betulin-28-succinate, reference compound]
Approximate Minimum Inhibitory Concentration, MIC [3]: 50 µg/mL

C=C(C)[C@@H]1CC[C@]2(COC(=O)/C=C\C(=O)O)CC[C@]3(C)[C@H](CC[C@@H]4[C@@]5(C)CC[C@H](OC(=O)/C=C\C(=O)O)C(C)(C)[C@@H]5CC[C@]43C)[C@@H]12 [Compound 93, betulin-3,28-dimaleate, reference compound]
Approximate Minimum Inhibitory Concentration, MIC [1]: 200 µg/mL | Approximate Minimum Inhibitory Concentration, MIC [3]: 200 µg/mL

C=C(C)[C@@H]1CC[C@]2(COC(=O)/C=C\C(=O)O)CC[C@]3(C)[C@H](CC[C@@H]4[C@@]5(C)CC[C@H](O)C(C)(C)[C@@H]5CC[C@]43C)[C@@H]12 [Compound 94, betulin-28-maleate, reference compound]
Approximate Minimum Inhibitory Concentration, MIC [2]: 200 µg/mL | Approximate Minimum Inhibitory Concentration, MIC [3]: 50 µg/mL | Approximate Minimum Inhibitory Concentration, MIC [4]: 200 µg/mL
